Results from paper PMC4784888, “Activity Based High-Throughput Screening for Novel O-GlcNAc Transferase Substrates Using a Dynamic Peptide Microarray” (PLoS ONE, 2016).
Each block holds one substance with its values, some of them ahead of it.

Columns and labels:
nc-OGT = assay: O-GlcNAcylation on kinase substrate peptide microarray, nc-OGT; type: biochemical, human; conditions: bacterial lysate containing nc-OGT (7 μg/μL), 1 mM UDP-GlcNAc, 50 mM Tris-HCl pH 7.5, 30°C, FITC antibody fluorescence, corrected for signal without UDP-GlcNAc
Protocol: (§1) Plasmids encoding s-OGT, m-OGT, and nc-OGT are generous gifts from John A. Hanover (National Institute of Health, USA). OGT overexpression was carried out as previously described. All the plasmids were transformed into E.coli BL21 (DE3) competent cells to produce a cell lysate containing OGT for use or for further purification. Briefly, inoculated a single colony into 50 ml of LB broth media containing 50 μg/ml ampicillin and cells were grown overnight at 37°C with vigorous shaking. 50 mL of the start culture was added into 1L LB broth media containing 50 μg/mL ampicillin and it was incubated with shaking at 200 rpm at 37°C until A600 reached 0.4–0.6. After the culture was cooled to room temperature, 0.5 mM IPTG was added into the culture to induce protein expression. After 16 hours, the cells were collected by centrifugation for 10 min at 4000 RPM at 4°C. The pellets were lysed in lysis buffer containing 20 mM Tris-HCl, pH 7.5, 1 mg/mL lysome, 0.1% triton x-100 and complete mini EDTA-free protease inhibitor cocktail on ice for 10 min and the lysate was sonicated until the DNA was completely sheared. After centrifugation for 10 min at 12000 rpm at 4°C, the supernatant was carefully transferred into a clean tube and was ready for the array assay or for further purification. Protein expression was determined by coomassie blue staining and western blotting using an anti-OGT antibody.
(§2) Peptide O-GlcNAcylation was assessed using PamChip 4 microarray chips with a PamStation 12 instrument (Pamgene international, The Netherlands). The OGT enzyme reaction was prepared essentially as described[26] with minor modifications. Briefly, before addition of the enzyme reaction, the microarray was blocked with blocking buffer (1% BSA in TBS). After 30 cycles (2 cycles/min) blocking, the blocking buffer was aspirated and the microarray was incubated with 40 μL of the enzyme reaction containing OGT (lysate or purified), OGT reaction buffer (50 mM Tris—HCl, pH 7.5;1 mM DTT;12.5 mM MgCl2), a 1:1 pre-incubated mixture of anti-O-GlcNAc and FITC conjugated secondary antibody, and the sugar donor UDP-GlcNAc or water as a control for 480 cycles (2 cycles/min) at 30°C. The microarray was run in parallel by pumping the reaction up and down through the porous membrane at every cycle and a tiff image was obtained at every 20 cycles by a CCD camera inside the PamStation. O-GlcNAcylation of each peptide was detected by a fluorescent signal which was produced by an FITC conjugated antibody bound to the O-GlcNAc moiety on the peptide.
(§3) Image analysis was performed using BioNavigator 6 software (Pamgene international, The Netherlands). Briefly, each image was quantified by automated array grid finding and subsequent quantification of signal and local background for each individual spot. In this work, the signal median-minus-background value was used as the quantitative parameter for the O-GlcNAcylation of the peptide.
(§4) Dynamic peptide microarray (PamChip) technology has been successfully and widely used for kinase activities profiling in the last decade. In the present work, we describe, for the first time, the utility of this peptide microarray format for the identification of human OGT activity. Due to the fact that O-GlcNAcylation and phosphorylation may occur at the same or proximal amino acids on the same protein [9], a peptide microarray of 144 peptides derived from different kinase substrates (S1 Appendix) was selected for an initial test. […] O-GlcNAcylation of peptides in each individual spot was detected by a fluorescent signal produced by the FITC labelled antibody recognizing the O-GlcNAcylated amino acids of converted peptides. Kinetic activity was measured through scanning the signal at regular intervals.
(§5) Fig 2 Identification of human OGT substrates from a kinase substrate and nuclear hormone receptor interaction peptide microarray. […]

s-OGT = assay: O-GlcNAcylation on kinase substrate peptide microarray, s-OGT; type: biochemical, human; conditions: bacterial lysate containing s-OGT (7 μg/μL), 1 mM UDP-GlcNAc, 50 mM Tris-HCl pH 7.5, 30°C, FITC antibody fluorescence, corrected for signal without UDP-GlcNAc
Protocol: as §1, §2, §3, §4, §5

m-OGT = assay: O-GlcNAcylation on kinase substrate peptide microarray, m-OGT; type: biochemical, human; conditions: bacterial lysate containing m-OGT (7 μg/μL), 1 mM UDP-GlcNAc, 50 mM Tris-HCl pH 7.5, 30°C, FITC antibody fluorescence, corrected for signal without UDP-GlcNAc
Protocol: as §1, §2, §3, §4, §5

[1] = system: OGT (s-OGT, m-OGT, nc-OGT); assay: O-GlcNAcylation on kinase substrate peptide microarray, three isoforms taken together; type: biochemical, human; conditions: kinase substrate microarray; bacterial lysates s-, m-, nc-OGT; 1 mM UDP-GlcNAc
Protocol: as §1, with “The pellets were lysed in lysis buffer containing 20 mM Tris-HCl, pH 7.5, 1 mg/mL lysome, 0.1% triton x-100 and complete mini EDTA-free protease inhibitor cocktail on ice for 10 min and the lysate was sonicated until the DNA was completely sheared.” left out
Peptide O-GlcNAcylation was assessed using PamChip 4 microarray chips with a PamStation 12 instrument (Pamgene international, The Netherlands). […] O-GlcNAcylation of each peptide was detected by a fluorescent signal which was produced by an FITC conjugated antibody bound to the O-GlcNAc moiety on the peptide.
as §3
Dynamic peptide microarray (PamChip) technology has been successfully and widely used for kinase activities profiling in the last decade. […] Kinetic activity was measured through scanning the signal at regular intervals. […]

[2] = molecular target: T1, m-OGT (mitochondrial isoform of O-GlcNAc transferase) (human) (UniProt O15294)
T1 sequence: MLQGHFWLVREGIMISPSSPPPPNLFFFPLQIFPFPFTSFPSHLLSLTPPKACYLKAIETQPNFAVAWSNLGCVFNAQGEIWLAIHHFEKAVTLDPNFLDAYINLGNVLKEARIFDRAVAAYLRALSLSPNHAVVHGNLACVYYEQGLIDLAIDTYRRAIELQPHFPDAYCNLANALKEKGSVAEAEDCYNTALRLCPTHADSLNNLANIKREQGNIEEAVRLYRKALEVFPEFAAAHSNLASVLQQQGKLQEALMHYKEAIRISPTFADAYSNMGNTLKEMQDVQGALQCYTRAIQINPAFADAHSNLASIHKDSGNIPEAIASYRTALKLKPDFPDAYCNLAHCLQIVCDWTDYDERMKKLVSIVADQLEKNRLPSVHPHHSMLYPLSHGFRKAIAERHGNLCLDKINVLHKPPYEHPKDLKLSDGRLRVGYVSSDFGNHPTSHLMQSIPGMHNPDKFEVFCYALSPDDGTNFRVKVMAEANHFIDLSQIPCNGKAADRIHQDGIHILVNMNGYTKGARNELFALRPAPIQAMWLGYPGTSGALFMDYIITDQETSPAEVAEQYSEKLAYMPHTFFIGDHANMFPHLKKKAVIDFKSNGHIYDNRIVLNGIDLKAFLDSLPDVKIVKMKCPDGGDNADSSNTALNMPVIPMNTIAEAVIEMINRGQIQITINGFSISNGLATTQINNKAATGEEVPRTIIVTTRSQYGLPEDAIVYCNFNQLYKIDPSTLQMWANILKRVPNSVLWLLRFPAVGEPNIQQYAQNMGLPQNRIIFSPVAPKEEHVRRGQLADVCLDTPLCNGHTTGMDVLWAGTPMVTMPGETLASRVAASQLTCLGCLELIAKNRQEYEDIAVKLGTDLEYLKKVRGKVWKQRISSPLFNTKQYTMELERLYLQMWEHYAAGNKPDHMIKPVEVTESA

Substance: MLRGRSLSVTSLG [GYS2_1_13, kinase substrate microarray peptide …]
OGT isoforms activity, nc (nc-OGT): P (Signal greater than 5% of the highest signal was defined as positive (P))
OGT isoforms activity, s (s-OGT): P (Signal greater than 5% of the highest signal was defined as positive (P))
OGT isoforms activity, m (m-OGT): P (Signal greater than 5% of the highest signal was defined as positive (P))
O-GlcNAcylation by all three isoforms OGT [1]: significantly O-GlcNAcylated by all three isoforms OGT

O-GlcNAcylation of the peptide in solution, UDP-Glo assay (UDP formation) [2]: 20%
Substance: RBL-2_410–422 T417A peptide (from UniProt Q08999 410-422)

decrease of the O-GlcNAcylation of the immobilised peptide by purified m-OGT (0.2 μg/μL, 1 mM UDP-GlcNAc), peptide microarray, against the control peptide (wild type with C415A) [2]: 40%
Substance: RBL-2_410–422 T421A peptide (from UniProt Q08999 410-422)
